Measured values as given in ChEMBL document CHEMBL1201862, “PubChem BioAssay data set” (2004).
Calls of active or inactive are those of the source.

How the values were obtained:
[1] = target: T1, Heat shock factor protein 1 (Mus musculus, UniProt P38532); experiment: inhibition of MG132-induced HSE-luciferase signal, confirmation, cell-based, NIH3T3, luminescence, dose retest (AID 2382); format: functional;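 also: NIH3T3 fibroblasts with HSF1-driven luciferase reporter stressed by proteasome inhibitor MG132; luminescence from HSF1-driven luciferase expression after 8 hours of MG132 stress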
T1 sequence (P38532 whole entry): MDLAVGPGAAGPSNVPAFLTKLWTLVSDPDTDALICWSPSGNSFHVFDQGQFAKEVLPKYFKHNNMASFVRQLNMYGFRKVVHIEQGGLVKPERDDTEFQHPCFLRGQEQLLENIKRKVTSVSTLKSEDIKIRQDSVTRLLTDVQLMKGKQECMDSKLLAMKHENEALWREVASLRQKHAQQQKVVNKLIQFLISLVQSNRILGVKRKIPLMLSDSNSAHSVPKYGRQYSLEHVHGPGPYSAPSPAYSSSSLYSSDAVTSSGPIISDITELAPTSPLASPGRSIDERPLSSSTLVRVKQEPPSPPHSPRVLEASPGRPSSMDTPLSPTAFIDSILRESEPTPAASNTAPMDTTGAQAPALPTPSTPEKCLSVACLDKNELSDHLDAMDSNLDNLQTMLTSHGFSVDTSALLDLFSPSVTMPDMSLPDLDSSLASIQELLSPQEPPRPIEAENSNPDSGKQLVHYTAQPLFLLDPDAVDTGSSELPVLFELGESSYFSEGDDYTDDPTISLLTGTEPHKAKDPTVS

Cytochrome P450 1A2 = target: T2, Cytochrome P450 1A2 (Homo sapiens, UniProt P05177);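 also: PubChem cytochrome P450 panel assay, CYP1A2 panel member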
T2 sequence (P05177 whole entry): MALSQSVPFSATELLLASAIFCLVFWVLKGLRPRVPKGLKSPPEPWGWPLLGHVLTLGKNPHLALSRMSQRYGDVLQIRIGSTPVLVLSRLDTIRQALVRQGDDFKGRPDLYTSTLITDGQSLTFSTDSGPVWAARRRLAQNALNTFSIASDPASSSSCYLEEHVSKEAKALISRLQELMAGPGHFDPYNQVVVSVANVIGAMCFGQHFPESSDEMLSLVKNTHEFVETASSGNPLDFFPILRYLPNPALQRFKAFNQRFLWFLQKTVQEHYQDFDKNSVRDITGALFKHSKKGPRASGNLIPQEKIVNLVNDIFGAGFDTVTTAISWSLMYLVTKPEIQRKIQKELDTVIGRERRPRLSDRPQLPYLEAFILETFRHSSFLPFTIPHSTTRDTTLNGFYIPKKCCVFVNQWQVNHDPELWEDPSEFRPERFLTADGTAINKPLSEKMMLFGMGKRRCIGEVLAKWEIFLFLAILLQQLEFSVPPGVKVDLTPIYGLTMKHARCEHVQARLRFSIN

Cytochrome P450 2C19 = Cytochrome P450 2C19 (Homo sapiens, UniProt P33261); experiment: Cytochrome panel assay with activity outcomes. Panel member name: p450-cyp2c19 Compounds with AC50 equal or less than 10 uM are considered active; format: functional
Cytochrome P450 2D6 = Cytochrome P450 2D6 (Homo sapiens, UniProt P10635);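 also: CYP2D6 member of a cytochrome P450 panel assay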
Cytochrome P450 2C9 = Cytochrome P450 2C9 (Homo sapiens, UniProt P11712)
Streptococcus = experiment: Group A Streptococcus viability loss, dose response, counter-screen for streptokinase expression inhibitor project, luminescence, BacTiterGlo (AID 1915); format: functional, organism-based;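 also: potency for reduction of bacterial viability or growth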
Streptokinase A = target: T3, Streptokinase A (Streptococcus pyogenes serotype M1, UniProt P10520); experiment: S. pyogenes streptokinase expression inhibitors, potency, dose response, plasminogen activation absorbance, OD405 (AID 1914); format: functional, Streptococcus pyogenes M1 GAS;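 also: secreted streptokinase activity via plasminogen activation per viability signal from cell pellet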
T3 sequence (P10520 whole entry): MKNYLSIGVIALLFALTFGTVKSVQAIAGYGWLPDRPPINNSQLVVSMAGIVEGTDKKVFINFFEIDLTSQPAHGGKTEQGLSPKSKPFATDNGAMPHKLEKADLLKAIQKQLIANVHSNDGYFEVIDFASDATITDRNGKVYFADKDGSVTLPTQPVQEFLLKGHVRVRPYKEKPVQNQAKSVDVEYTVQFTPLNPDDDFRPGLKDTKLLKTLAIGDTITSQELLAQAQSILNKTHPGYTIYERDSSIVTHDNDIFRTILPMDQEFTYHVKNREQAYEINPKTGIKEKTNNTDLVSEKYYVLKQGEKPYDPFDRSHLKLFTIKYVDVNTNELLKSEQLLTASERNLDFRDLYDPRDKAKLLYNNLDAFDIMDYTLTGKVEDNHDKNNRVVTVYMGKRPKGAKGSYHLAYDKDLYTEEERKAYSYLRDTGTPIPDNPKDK

[2] = system: Streptococcus sp. 'group A'; experiment: growth inhibition of control SK(-) GAS strain, dose response, counter-screen for streptokinase expression inhibitor project, luminescence, kanamycin, BacTiterGlo, confirmation (AID 1900); format: functional, organism-based
H4 = experiment: Luminescence Cell-Based Dose Response HTS to Identify Activators of 5'UTR Stem-Loop Driven Prion Protein mRNA Translation in H4 Neuroglioblastoma Cells. [Related pubchem assays: 1829 (Project Summary), 1814 (Primary HTS)]; format: functional; settings: Homo sapiens
[3] = Luminescence Cell-Based Dose Response HTS to Identify Activators of Luciferase Translation or Activity in H4 […] Cells. [Related pubchem assays: 1829 (Project Summary), 1814 (Primary HTS)]; format: functional
Cytochrome P450 3A4 = Cytochrome P450 3A4 (Homo sapiens, UniProt P08684);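 also: CYP3A4 tested as one member of a cytochrome P450 panel screen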
Sequence of Cytochrome P450 3A4 (P08684 whole entry): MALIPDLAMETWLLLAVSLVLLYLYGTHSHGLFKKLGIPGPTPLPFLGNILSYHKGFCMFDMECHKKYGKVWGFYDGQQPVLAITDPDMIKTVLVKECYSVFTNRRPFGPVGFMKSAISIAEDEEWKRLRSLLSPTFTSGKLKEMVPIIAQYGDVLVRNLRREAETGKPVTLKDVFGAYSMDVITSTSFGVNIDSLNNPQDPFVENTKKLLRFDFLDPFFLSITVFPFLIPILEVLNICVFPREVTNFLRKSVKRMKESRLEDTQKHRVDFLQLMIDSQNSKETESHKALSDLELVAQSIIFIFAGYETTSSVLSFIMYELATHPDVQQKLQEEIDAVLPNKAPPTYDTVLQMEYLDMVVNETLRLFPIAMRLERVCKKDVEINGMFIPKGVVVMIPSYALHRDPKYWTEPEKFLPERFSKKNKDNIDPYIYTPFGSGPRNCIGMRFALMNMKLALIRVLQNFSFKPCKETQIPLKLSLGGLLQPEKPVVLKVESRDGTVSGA

Sequence of Cytochrome P450 2C9 (P11712 whole entry): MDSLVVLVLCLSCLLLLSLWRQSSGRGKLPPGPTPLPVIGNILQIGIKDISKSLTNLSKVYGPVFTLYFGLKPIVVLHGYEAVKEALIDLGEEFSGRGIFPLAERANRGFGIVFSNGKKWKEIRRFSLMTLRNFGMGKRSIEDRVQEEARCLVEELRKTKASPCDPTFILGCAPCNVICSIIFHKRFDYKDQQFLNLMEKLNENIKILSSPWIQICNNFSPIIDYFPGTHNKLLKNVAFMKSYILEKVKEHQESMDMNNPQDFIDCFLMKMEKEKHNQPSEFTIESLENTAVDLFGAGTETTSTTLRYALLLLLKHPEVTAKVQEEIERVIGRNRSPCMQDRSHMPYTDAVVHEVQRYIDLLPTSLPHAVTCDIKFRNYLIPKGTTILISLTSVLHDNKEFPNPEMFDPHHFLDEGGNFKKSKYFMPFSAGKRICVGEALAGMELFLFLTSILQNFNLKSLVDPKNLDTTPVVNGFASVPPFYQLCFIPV
Sequence of Cytochrome P450 2C19 (P33261 whole entry): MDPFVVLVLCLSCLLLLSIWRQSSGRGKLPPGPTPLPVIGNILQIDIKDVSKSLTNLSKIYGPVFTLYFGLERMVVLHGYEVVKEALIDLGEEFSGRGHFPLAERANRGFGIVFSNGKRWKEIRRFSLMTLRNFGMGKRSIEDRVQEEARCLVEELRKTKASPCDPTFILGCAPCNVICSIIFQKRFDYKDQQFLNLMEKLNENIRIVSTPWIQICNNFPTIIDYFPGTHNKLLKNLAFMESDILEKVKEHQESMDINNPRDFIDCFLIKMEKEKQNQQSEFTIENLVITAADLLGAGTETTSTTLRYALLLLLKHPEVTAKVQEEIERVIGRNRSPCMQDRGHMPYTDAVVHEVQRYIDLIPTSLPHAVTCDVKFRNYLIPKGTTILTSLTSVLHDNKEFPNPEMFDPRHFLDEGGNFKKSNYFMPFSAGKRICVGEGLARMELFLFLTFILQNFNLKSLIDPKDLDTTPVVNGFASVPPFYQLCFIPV
Sequence of Cytochrome P450 2D6 (P10635 whole entry): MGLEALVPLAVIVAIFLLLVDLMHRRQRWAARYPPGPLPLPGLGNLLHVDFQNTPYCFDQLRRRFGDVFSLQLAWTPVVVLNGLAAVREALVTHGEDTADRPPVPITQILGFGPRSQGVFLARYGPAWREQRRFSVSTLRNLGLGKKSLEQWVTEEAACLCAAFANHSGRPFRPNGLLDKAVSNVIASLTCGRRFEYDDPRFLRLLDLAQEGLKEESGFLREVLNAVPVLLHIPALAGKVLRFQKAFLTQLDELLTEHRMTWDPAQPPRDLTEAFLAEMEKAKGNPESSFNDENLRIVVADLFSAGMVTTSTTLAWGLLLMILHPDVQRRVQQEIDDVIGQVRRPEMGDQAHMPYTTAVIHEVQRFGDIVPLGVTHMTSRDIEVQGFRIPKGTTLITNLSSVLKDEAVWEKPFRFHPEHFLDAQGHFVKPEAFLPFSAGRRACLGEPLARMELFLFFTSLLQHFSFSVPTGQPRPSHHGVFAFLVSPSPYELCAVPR

For O=C(NC1CCCCC1)C(c1ccco1)N(C(=O)c1csnn1)c1ccc(Cl)cc1 (stereo not drawn), the EC50 [1] was > 195 µM (not active).
With COc1[nH]nc2nncnc12 the AC50 (Cytochrome P450 1A2) was 6.31 µM (inconclusive) and the AC50 (Cytochrome P450 2C19; read-out: AC50) was 15.8 µM (inconclusive).
With CCCOc1ccc(N2C(=O)CC(SC(=N)N/N=C(\C)c3cccs3)C2=O)cc1 (stereo not drawn) the AC50 (Cytochrome P450 1A2) was 15.8 µM (inconclusive) and the AC50 (Cytochrome P450 2D6) was 15.8 µM (inconclusive).
With Sc1nnc(-c2ccncc2)n1Cc1ccco1 the EC50 [1] was > 195 µM (not active).
In the case of CCOC(=O)Nc1nc(-c2ccccc2)c(C)s1, the AC50 (Cytochrome P450 2C19; read-out: AC50) is reported as 3.98 µM (inconclusive) and the AC50 (Cytochrome P450 2C9) is reported as 7.94 µM (inconclusive).
In the case of O=C(O)[C@H]1CN[C@H](C(=O)O)C1, the AC50 (Cytochrome P450 1A2) is reported as 31.6 µM (inconclusive), the AC50 (Cytochrome P450 2D6) is reported as 39.8 µM (inconclusive) and the AC50 (Cytochrome P450 2C19) is reported as “inconclusive”.
With O=C(Nc1nc(-c2ccccn2)cs1)C12CC3CC(CC(O)(C3)C1)C2 the EC50 (Streptococcus) was > 150 µM (not active), the EC50 (Streptokinase A) was > 150 µM (not active) and the EC50 [2] was > 150 µM (not active).
For CCn1c(O)c(C(c2ccccn2)c2c(O)n(CC)c(=S)[nH]c2=O)c(=O)[nH]c1=S, the AC50 (Cytochrome P450 2C19; read-out: AC50) was 0.00562 µM (inconclusive) and the AC50 (Cytochrome P450 2C9) was 31.6 µM (inconclusive).
For FC(F)(F)c1cc(-c2ccccc2)nc(N2CCCCCC2)n1, the EC50 (Streptococcus) was 14.3 µM (active), the EC50 (Streptokinase A) was 5.14 µM (active) and the EC50 [2] was 4.27 µM (active).
With Cc1ccc(C(=O)N(CN2CCCC2=O)c2ccccc2)cc1C the AC50 (Cytochrome P450 1A2) was 5.01 µM (inconclusive) and the AC50 (Cytochrome P450 2C9) was 0.00562 µM (inconclusive).
For CC(=O)C1C(c2ccccc2OC(F)F)NC(=O)NC1(O)C(F)(F)F (stereo not drawn), the AC50 (Cytochrome P450 1A2) was 5.01 µM (inconclusive) and the AC50 (Cytochrome P450 2C9) was 15.8 µM (inconclusive).
With CC(C)c1c(C(=O)N/N=C/c2cccc(OCc3ccc(F)cc3)c2)nnn1-c1nonc1N the EC50 (Streptococcus) was 23.1 µM (active), the EC50 (Streptokinase A) was 2.1 µM (active) and the EC50 [2] was 4.9 µM (active).
With CC(C)CC(=O)O/N=C1\C(=O)N(c2ccccc2)c2ccccc21 the AC50 (Cytochrome P450 1A2) was 3.55 µM (inconclusive), the AC50 (Cytochrome P450 2C19; read-out: AC50) was 5.62 µM (inconclusive) and the AC50 (Cytochrome P450 2C9) was 6.31 µM (inconclusive).
With Cc1ncc(CSC(=N)N)n1Cc1ccccc1 the AC50 (Cytochrome P450 2C19; read-out: AC50) was 7.94 µM (inconclusive).
In the case of CCCC(=O)Nc1c(C)n[nH]c1C, the AC50 (Cytochrome P450 2C19; read-out: AC50) is reported as 3.98 µM (inconclusive).
For O=C(NCCCN1CCC(Cc2ccccc2)CC1)C1CC(=O)N(C2CCCC2)C1 (stereo not drawn), the EC50 [1] was > 195 µM (not active).
With COC(=O)CCCC1=CC2=C(c3ccccc3)C(=O)C(C)(OC(=O)C3CCCC3)C(=O)C2=CN1c1ccc(OC)cc1 (stereo not drawn) the EC50 [1] was > 195 µM (not active).
With CSc1cccc(NC(=S)N2CCC(N(C)C3CCCC3)CC2)c1 the EC50 [1] was > 195 µM (not active).
For COc1cccc(-c2cccc(NC(=O)C3CCN(Cc4ccon4)CC3)c2)c1, the EC50 [1] was > 195 µM (not active).
For S=C(N/N=C/c1ccc(Br)cc1)N1CCCCC1, the EC50 (H4) was 96.7 µM (active) and the EC50 [3] was 174 nM (active).
With Cc1ccccc1N1CCN(C(=O)c2ccccc2NC(=O)/C=C\C(=O)O)CC1 the AC50 (Cytochrome P450 2C19; read-out: AC50) was 28.2 µM (inconclusive).
For COc1ccc2c(c1O)-c1cccc3c1[C@H](C2)N(C)CC3, the AC50 (Cytochrome P450 2D6) was 31.6 µM (inconclusive), the AC50 (Cytochrome P450 2C19; read-out: AC50) was 7.94 µM (inconclusive) and the AC50 (Cytochrome P450 3A4) was 15.8 µM (inconclusive).
For COc1ccccc1N1CCN(C(c2ccc(N(C)C)cc2)c2nnnn2CCc2ccccc2)CC1 (stereo not drawn), the EC50 [1] was > 195 µM (not active).
With COc1ccc(N2CCN(C(=O)c3cccc(Br)c3)CC2)c([N+](=O)[O-])c1 the EC50 [1] was > 195 µM (not active).
